Measured values: US8263644B2, “Cytotoxic xanthone compounds” (Bristol-Myers Squibb Company, priority 2007, dated 2012)
Values after ≈ are worked out from the molar mass of the structure shown. Where two headings read alike, the source gives them in different places.

Legend:
[1] = tested on: Escherichia coli SOS chromotest; experiment: Escherichia coli SOS chromotest (TLC/HPLC biogram); format: cell-based; conditions: E. coli SOS chromotest
Text: The crude extracts as received were subjected to a modified “Kupchan” liquid-liquid partitioning sequence, (Kupchan, S. M., Britton, R. W., Ziegler, M. F., Sigel, C. W.; J. Org. Chem., 1973, 38, 178-179.), followed by gel partition chromatography (Sephadex LH-20) and/or Silica gel vacuum liquid chromatography. The fractionation was guided initially by TLC-bioautography using the Escherichia coli SOS chromotest assay. ((a) Quillardet, P.; Huisman, O.; D'Ari, R.; Hofnung, M. Proc. Natl. Acad. Sci. U.S.A. 1982, 79, 5971-5975. (b) Mamber, S. W.; Okasinski, W. G.; Pinter, C. D.; Tunac, J. B. Mutat. Res., 1986, 171, 83-90.). More precise localization of the peak of SOS activity was later made possible using HPLC biogram methodology. ((a) Fura, A.; Shu, Y.-Z.; Zhu, M.; Hanson, R. L.; Roongta, V.; Humphreys, W. G. J. Med. Chem. 2004, 47, 4339-4351. (b) Hook, D. J., More, C. F., Yacobucci, J. J., Dubay, G., O'Connor, S.; J. Chromatogr., 1987, 385, 99-108.). In this manner, analytical HPLC was used to further fractionate the SOS-active sample into 96-deep-well plates. […]
General Experimental Procedures. […] High-resolution MS data were determined by HR +νe ESI on a Thermo Scientific Finnigan MAT900 (magnetic sector MS, polypropylene glycol reference) or Orbitrap (hybrid ion trap-FTICR MS). IR spectra were recorded with a Perkin-Elmer System 2000 FT-IR instrument (thin film-NaCl). […]

[2] = in vitro cytotoxicity, ABAE bovine endothelial cells; format: cell-based; conditions: bovine, ABAE endothelial cells; ABAE cell line
Experimental: (§1) In particular there was a clear in vitro cytotoxicity observed against ABAE cells (bovine endothelial cell line, 0.03 μg/ml).
(§2) General Experimental Procedures. NMR spectra were obtained on a Bruker DRX 500 MHz spectrometer, equipped with a 5-mm TXI cryoprobe. Proton and carbon chemical shifts are reported in ppm relative to DMSO at δH 2.49 and δC 39.6. LC-NMR on an enriched psoroxanthin (4) sample was conducted with a Varian Inova 600 MHz instrument, using a YMC ODS-AQ (C18) column, 4.6×150 mm, 3μ and mobile phase water-acetonitrile 7:3, isocratic, 1.2 ml/min flow rate. Low-resolution MS and MS/MS measurements were performed by +νe ESI on a Thermo Scientific Finnigan SSQ7000 (single quadrupole MS), TSQ7000 (triple quadrupole MS), or LCQ Classic (ion trap MS). High-resolution MS data were determined by HR +νe ESI on a Thermo Scientific Finnigan MAT900 (magnetic sector MS, polypropylene glycol reference) or Orbitrap (hybrid ion trap-FTICR MS). IR spectra were recorded with a Perkin-Elmer System 2000 FT-IR instrument (thin film-NaCl). UV spectra were obtained using a Hewlett-Packard 8452A diode array spectrophotometer. Sephadex LH-20 (Pharmacia Biotech) and LiChroprep Si 60, 25-40 μm (EM Separations) were used for column chromatography. HPLC(C18) conditions: Analytical: Agilent HP-1100, Waters corp. X-Terra 5 μl (C18) column, 4.6×150 mm; mobile phase: 0.01 N potassium phosphate buffer pH 3.5-acetonitrile gradient, flow rate 1.2 ml/min. UV 254 nm (Hook, D. J., More, C. F., Yacobucci, J. J., Dubay, G., O'Connor, S.; J. Chromatogr., 1987, 385, 99-108.) Preparative: Beckman System Gold workstation, YMC ODS-A 5μ (C18) column, 20×100 mm. For TLC biogram (SOS) analyses, Silica gel plates (Analtech, 0.25 mm) with chloroform-methanol mixtures (i.e. 95:5 v/v) as the mobile phase were used. For HPLC biogram (SOS) analyses, fractions were collected into Beckman 96-deepwell plates using a Gilson 215 liquid handler and dried under nitrogen stream prior to bioassay. […]
(§3) The SOS active compounds 1 and 4 were evaluated for in vitro cytotoxicity in a variety of tumor cell lines. […]

6-cell line panel = experiment: cytotoxicity in a 6-cell line panel; format: cell-based; conditions: read-out: mean IC50, cytotoxicity
Experimental: as §1
as §2, with “corp.” for “corp. X-Terra 5 μl (C18) column, 4.6×150 mm; mobile phase: 0.01 N potassium phosphate buffer pH 3.5-acetonitrile gradient, flow rate 1.2 ml/min. UV 254 nm (Hook, D. J., More, C. F., Yacobucci, J. J., Dubay, G., O'Connor, S.; J. Chromatogr., 1987, 385, 99-108.) Preparative: Beckman System Gold workstation, YMC ODS-A 5μ (C18) column, 20×100 mm. For TLC biogram (SOS) analyses, Silica gel plates (Analtech, 0.25 mm) with chloroform-methanol mixtures (i.e. 95:5 v/v) as the mobile phase were used. For HPLC biogram (SOS) analyses, fractions were collected into Beckman 96-deepwell plates using a Gilson 215 liquid handler and dried under nitrogen stream prior to bioassay.”

HCT-116 = experiment: in vitro cytotoxicity, tumor cell line HCT-116; format: cell-based; conditions: Homo sapiens
Experimental: as §2, with “corp.” for “corp. X-Terra 5 μl (C18) column, 4.6×150 mm; mobile phase: 0.01 N potassium phosphate buffer pH 3.5-acetonitrile gradient, flow rate 1.2 ml/min. UV 254 nm (Hook, D. J., More, C. F., Yacobucci, J. J., Dubay, G., O'Connor, S.; J. Chromatogr., 1987, 385, 99-108.) Preparative: Beckman System Gold workstation, YMC ODS-A 5μ (C18) column, 20×100 mm. For TLC biogram (SOS) analyses, Silica gel plates (Analtech, 0.25 mm) with chloroform-methanol mixtures (i.e. 95:5 v/v) as the mobile phase were used. For HPLC biogram (SOS) analyses, fractions were collected into Beckman 96-deepwell plates using a Gilson 215 liquid handler and dried under nitrogen stream prior to bioassay.”
as §3

A2780 = experiment: in vitro cytotoxicity, tumor cell line A2780; format: cell-based; conditions: Homo sapiens
Experimental: as §2, with “corp.” for “corp. X-Terra 5 μl (C18) column, 4.6×150 mm; mobile phase: 0.01 N potassium phosphate buffer pH 3.5-acetonitrile gradient, flow rate 1.2 ml/min. UV 254 nm (Hook, D. J., More, C. F., Yacobucci, J. J., Dubay, G., O'Connor, S.; J. Chromatogr., 1987, 385, 99-108.) Preparative: Beckman System Gold workstation, YMC ODS-A 5μ (C18) column, 20×100 mm. For TLC biogram (SOS) analyses, Silica gel plates (Analtech, 0.25 mm) with chloroform-methanol mixtures (i.e. 95:5 v/v) as the mobile phase were used. For HPLC biogram (SOS) analyses, fractions were collected into Beckman 96-deepwell plates using a Gilson 215 liquid handler and dried under nitrogen stream prior to bioassay.”
as §3

[3] = tested on: ABAE cells (bovine endothelial cell line); experiment: in vitro cytotoxicity, ABAE bovine endothelial cells; format: cell-based; conditions: versus the tumor cell lines
Experimental: as §1, §2, §3

SKBR3 = experiment: in vitro cytotoxicity, tumor cell line SKBR3; format: cell-based; conditions: Homo sapiens, SK-BR-3, read-out: Cytotoxicity IC50
Experimental: as §2, with “corp.” for “corp. X-Terra 5 μl (C18) column, 4.6×150 mm; mobile phase: 0.01 N potassium phosphate buffer pH 3.5-acetonitrile gradient, flow rate 1.2 ml/min. UV 254 nm (Hook, D. J., More, C. F., Yacobucci, J. J., Dubay, G., O'Connor, S.; J. Chromatogr., 1987, 385, 99-108.) Preparative: Beckman System Gold workstation, YMC ODS-A 5μ (C18) column, 20×100 mm. For TLC biogram (SOS) analyses, Silica gel plates (Analtech, 0.25 mm) with chloroform-methanol mixtures (i.e. 95:5 v/v) as the mobile phase were used. For HPLC biogram (SOS) analyses, fractions were collected into Beckman 96-deepwell plates using a Gilson 215 liquid handler and dried under nitrogen stream prior to bioassay.”
as §3

various tumor cell lines = conditions: cited from earlier work
p388 mouse leukemia = conditions: cited from earlier work

Compound | SOS activity [1] | IC50 [2] | IC50 (6-cell line panel; mean over 6-cell line panel) | IC50 (HCT-116; HCT-116 cell line, read-out: Cytotoxicity IC50) | IC50 (A2780; A2780 cell line, read-out: Cytotoxicity IC50) | selectivity against bovine endothelial cells (ABAE) [3] | IC50 (SKBR3) | IC50 (6-cell line panel) | IC50 (HCT-116; HCT-116, read-out: Cytotoxicity IC50) | IC50 (A2780; A2780, read-out: Cytotoxicity IC50) | activity in vitro against various tumor cell lines (various tumor cell lines) | activity in vivo against p388 mouse leukemia (p388 mouse leukemia)
O=c1c2c(O)cccc2oc2ccc3c(c12)CC(C1(CO)CO1)O3 (centres unmarked) [Example 4, Psoroxanthin] | highly potent SOS-active | 102 nM | 0.2 to 4 µg/mL (≈ 0.613 to 12.3 µM) | 1000 nM | 330 nM |  |  |  |  |  |  | 
O=c1c2c(O)cccc2oc2ccc3c(c12)CC(C(O)(CO)CCl)O3 (centres unmarked) [Example 1, 3′,4′-deoxy-4′ chloropsoroxanthin-3′,5′-diol] | SOS-active | 4 nM |  |  |  | showed selectivity against bovine endothelial cells (ABAE) | 2000 nM | 0.2 to 4 µg/mL (≈ 0.551 to 11 µM) | 68 nM | 42 nM |  | 
COc1cc2c(c3oc4c(O)cccc4c(=O)c13)C[C@H]([C@@]1(C)CO1)O2 [psorospermin] |  |  |  |  |  |  |  |  |  |  | significant activity | significant activity
